{
  "source": "patent US20150290333A1",
  "about": "“PROCESS AND MATERIALS FOR MEDICAL APPLICATIONS” (NATIONAL UNIVERSITY OF SINGAPORE, priority 2012, published 2015)",
  "system": "human mesenchymal stem cells",
  "test": "Pinocytosis inhibition studies",
  "format": "cell-based",
  "conditions": "PVP, Fc70, Fc400",
  "protocol": "Cells were viewed with a FV300 laser scanning confocal microscope (Olympus, Japan). The excitation beam from a 543-nm HeNe ion laser (MellesGriot, Singapore) was focused by a water immersion objective (60×, NA1.2, Olympus) into the fluorescent sample. For organelle co-localization studies, an additional 488-nm Ar laser (MellesGriot, Singapore) was used to excite fluorescent organelle labels. Images were acquired with the Olympus FV300 software.\nhMSCs (Lonza) were pre-incubated for 1 hour with 10 mM methyl beta cyclodextrin (MBCD, Sigma-Aldrich), 28 μM chlorpromazine (CPZ, Sigma-Aldrich), 300 μM amiloride (Am, Sigma-Aldrich), and 10 μM monensin (Mon, Sigma-Aldrich) in serum-free LGDMEM. The cells were then incubated for a further 1 hour with a mixture of each inhibitor and each TRITC-labelled polymer in serum-free LGDMEM.",
  "data": [
    {"molecule": "N=C(N)NC(=O)c1nc(Cl)c(N)nc1N", "note": "[Am, amiloride]", "values": [
      {"measurement": "Effect of pinocytosis inhibitor on uptake of TRITC-labelled polymers", "setting": "300 μM inhibitor", "result": "no significant effects"}
    ]},
    {"molecule": "CN(C)CCCN1c2ccccc2Sc2ccc(Cl)cc21", "note": "[CPZ, chlorpromazine]", "values": [
      {"measurement": "Effect of pinocytosis inhibitor on uptake of TRITC-labelled polymers", "setting": "28 μM inhibitor", "result": "reduced polymer presence across the board, but trapped Fc in the worm-like compartments"}
    ]},
    {"molecule": "CC[C@@]1([C@@H]2O[C@@H]([C@H]3O[C@@](O)(CO)[C@H](C)C[C@@H]3C)C[C@@H]2C)CC[C@H]([C@]2(C)CC[C@]3(C[C@H](O)[C@@H](C)[C@@H]([C@@H](C)[C@@H](OC)[C@H](C)C(=O)O)O3)O2)O1", "note": "[Monensin, monensin]", "values": [
      {"measurement": "Effect of pinocytosis inhibitor on uptake of TRITC-labelled polymers", "setting": "10 μM inhibitor", "result": "did not inhibit uptake of polymers but arrested them in a seam of vesicles at the periphery of the cells"}
    ]},
    {"molecule": "methyl-beta-cyclodextrin [MβCD]", "values": [
      {"measurement": "Effect of pinocytosis inhibitor on uptake of TRITC-labelled polymers", "setting": "10 mM inhibitor", "result": "completely inhibited uptake of all polymers"}
    ]}
  ]
}
